Measurements taken from US20110184178A1, “POLYMORPHS OF 5-(3-(ETHYLSULFONYL)PHENYL)-3,8-DIMETHYL-N-(1-METHYLPIPERIDIN-4-YL)-9H-PYRIDO[2,3-B]INDOLE-7-CARBOXAMIDE AND METHODS OF USE THEREFOR” (Takeda Pharmaceutical Company Limited, priority 2008, published 2011).
Counter-ions that a name gives are not always drawn.

Assays:
Format in all cases: physicochemical
[1] = Physical characterization of the polymorphs and salt (XRPD, DSC, TGA, 1H-NMR, KF, moisture sorption): stability assessment; conditions: solid form
Method: Described herein are Form A, Form B, Form C, Form D, Form E, Form F and Form G of Compound I. Various tests were performed in order to physically characterize the polymorphs of Compound I, including X-ray powder diffraction (XRPD), differential scanning calorimetry (DSC), thermogravimetric analysis (TGA), solution proton nuclear magnetic resonance (^1H-NMR), and moisture sorption and desorption analysis (M S/Des). Detailed experimental conditions for each of the analytical techniques are described in the Examples section. […] A summary of these experiments and the results are presented below and in Table 12.

[2] = Solubility study of Form A in de-ionized water and 20 mM phosphate buffer at pH 3.2 (HPLC, XRPD of solids); conditions: for solubility: thermodynamic from solid
Method: Solubility was determined for Form A of Compound I by suspending the material in de-ionized water and 20 mM phosphate buffer at pH 3.2 and ambient temperature. Approximately 40 mg of Form A of Compound I was charged to 2-dram amber vials equipped with magnetic stir bars, followed by the addition of DI water or phosphate buffer (2.0 mL) in one portion. The samples were allowed to equilibrate with stirring for 16 h, followed by centrifugation. An aliquot of the supernatant liquid was analyzed by HPLC, and the solids isolated by filtration and dried under vacuum at ambient temperature for analysis by XRPD. Samples were allowed to stir for an additional 6 days and concentration determined by HPLC.

[3] = Moisture-sorption analysis (gravimetric adsorption/desorption, 25° C.)
Method: Further, the material gained enough water to form the dihydrate in approximately 45 minutes at 30% RH during adsorption and lost enough water to form the anhydrate at 15% RH during desorption in less than 60 minutes. […] The sample was further allowed to equilibrate at ambient laboratory conditions overnight and reanalyzed by XRPD. […] The moisture sorption experiment of Form C of Compound I provides a curve similar to the Form A curve (FIG. 11). […] Further, the material gained enough water to form the dihydrate in less than 60 minutes at 30% RH during adsorption and lost enough water to form the anhydrate at 15% RH during desorption in approximately 80 minutes. […] Moisture-sorption experiments were carried out on all samples by first drying the sample at 0% RH and 25° C. until an equilibrium weight was reached or for a maximum of four hours. The sample was then subjected to an isothermal (25° C.) adsorption scan from 10 to 90% RH in steps of 10%. Samples were then allowed to equilibrate to an asymptotic weight at each point for a maximum of four hours. Following adsorption, a desorption scan from 85 to 0% RH (at 25° C.) was run in steps of −10% again allowing a maximum of four hours for equilibration to an asymptotic weight. Samples were dried for one hour at 80° C. and the resulting solids analyzed by XRPD.

[4] = Approximate solubility screen of Compound I in different solvents; conditions: for solubility: organic solvent or mixture, thermodynamic from solid
Method: A solubility screen of Compound I was evaluated in 20 different solvents chosen as MeCN, dioxane, acetone, MtBE, EtOH, EtOAc, IPAc, IPA, THF, 2-MeTHF, MEK, DMF, AcOH, MeOH, cyclohexane, heptane, DCM, toluene, NMP, and DMAc, to select appropriate primary and binary solvents for the polymorph screen. One to four mg of the Compound I was charged to 2-dram clear vials equipped with magnetic stir bars and solvent was added in 250-μL portions with heating to 55° C. until complete dissolution was observed or a maximum of 6 mL was added. […] Solvents and other reagents were of ACS or HPLC grade and were used as received.

[5] = Slurry experiments (form by XRPD after slurrying in a solvent); conditions: 2.0 mL
Method: 50 to 60 mg of Form A of Compound I was weighed out into 2 dram amber vials and the material was slurried in 2 mL of a solvent. The slurry experiments were carried out at either ambient temperature or at 40° C. Samples were obtained from slurries after one day, one week, and two weeks. Tables 15 and 16 detail the results of the slurry experiments.

[6] = Form A slurried in water, 40 ° C.
[7] = Form A slurried in water, Ambient

CCS(=O)(=O)c1cccc(-c2cc(C(=O)NC3CCN(C)CC3)c(C)c3[nH]c4ncc(C)cc4c23)c1 [Form D, 5-(3-(ethylsulfonyl)phenyl)-3,8-dimethyl-N-(1-methylpiperidin-4-yl)-9H-pyrido[2,3-b]indole-7-carboxamide]
stability (based on the available characterization data) [1]: stable under ambient non-aqueous conditions

CCS(=O)(=O)c1cccc(-c2cc(C(=O)NC3CCN(C)CC3)c(C)c3[nH]c4ncc(C)cc4c23)c1 [Form E, 5-(3-(ethylsulfonyl)phenyl)-3,8-dimethyl-N-(1-methylpiperidin-4-yl)-9H-pyrido[2,3-b]indole-7-carboxamide]
stability (based on the available characterization data) [1]: stable under ambient non-aqueous conditions

CCS(=O)(=O)c1cccc(-c2cc(C(=O)NC3CCN(C)CC3)c(C)c3[nH]c4ncc(C)cc4c23)c1 [Form C, 5-(3-(ethylsulfonyl)phenyl)-3,8-dimethyl-N-(1-methylpiperidin-4-yl)-9H-pyrido[2,3-b]indole-7-carboxamide]
stability (based on the available characterization data) [1]: stable under ambient low humidity conditions | form conversion in aqueous media ([2]; during the solubility determination): converted to Form A | time to lose enough water to form the anhydrate ([3]; at 15% RH during desorption): approximately 80 minutes | time to gain enough water to form the dihydrate ([3]; at 30% RH during adsorption): less than 60 minutes | hydration state in the moisture sorption experiment ([3]; during both adsorption and desorption, 25° C.): convert to a stable dihydrate above 20% RH

CCS(=O)(=O)c1cccc(-c2cc(C(=O)NC3CCN(C)CC3)c(C)c3[nH]c4ncc(C)cc4c23)c1 [Form B, 5-(3-(ethylsulfonyl)phenyl)-3,8-dimethyl-N-(1-methylpiperidin-4-yl)-9H-pyrido[2,3-b]indole-7-carboxamide]
stability (based on the available characterization data) [1]: stable under ambient non-aqueous conditions

CCS(=O)(=O)c1cccc(-c2cc(C(=O)NC3CCN(C)CC3)c(C)c3[nH]c4ncc(C)cc4c23)c1 [Compound I, 5-(3-(ethylsulfonyl)phenyl)-3,8-dimethyl-N-(1-methylpiperidin-4-yl)-9H-pyrido[2,3-b]indole-7-carboxamide]
Soluble ([4]; 2-Me—THF, 1.6 mg, 5.75 mL, heating to 55° C.): No | Soluble ([4]; AcOH, 2.1 mg in 0.75 mL, Temp RT): Yes | Conc. ([4]; AcOH, Temp RT, 2.1 mg in 0.75 mL): 2800 µg/mL | Soluble ([4]; DCM, 2.6 mg, 4.50 mL, heating to 55° C.): No | Soluble ([4]; DMA, 2.8 mg in 0.50 mL, Temp 55): Yes | Conc. ([4]; DMA, Temp 55, 2.8 mg in 0.50 mL): 5600 µg/mL | Soluble ([4]; DMF, 1.8 mg in 0.50 mL, Temp RT): Yes | Conc. ([4]; DMF, Temp RT, 1.8 mg in 0.50 mL): >3600 µg/mL | Soluble ([4]; EtOAc, 2.2 mg, 5.75 mL, heating to 55° C.): No | Soluble ([4]; EtOH, 1.6 mg in 4.75 mL, Temp 55): Yes | Conc. ([4]; EtOH, Temp 55, 1.6 mg in 4.75 mL): 340 µg/mL | Soluble ([4]; Heptane, 1.9 mg, 3.50 mL, heating to 55° C.): No | Soluble ([4]; IPAC, 2.6 mg, 5.75 mL, heating to 55° C.): No | Soluble ([4]; MTBE, 1.3 mg, 5.75 mL, heating to 55° C.): No | Soluble ([4]; MeCN, 1.7 mg in 5.75 mL, Temp 55): Yes | Conc. ([4]; MeCN, Temp 55, 1.7 mg in 5.75 mL): 300 µg/mL | Soluble ([4]; MeOH, 1.7 mg in 2.00 mL, Temp 55): Yes | Conc. ([4]; MeOH, Temp 55, 1.7 mg in 2.00 mL): 850 µg/mL | Soluble ([4]; NMP, 2.4 mg in 0.50 mL, Temp 55): Yes | Conc. ([4]; NMP, Temp 55, 2.4 mg in 0.50 mL): 4800 µg/mL | Soluble ([4]; THF, 1.3 mg in 3.75 mL, Temp 55): Yes | Conc. ([4]; THF, Temp 55, 1.3 mg in 3.75 mL): 350 µg/mL | Soluble ([4]; Toluene, 1.8 mg, 3.50 mL, heating to 55° C.): No | Soluble ([4]; c-Hexane (cyclohexane), 1.8 mg, 3.50 mL, heating to 55° C.): No | solubility (in words) ([4]; in MeCN, MTBe, EtOAc, IPAc, IPA, THF, MEK, heptane and water): Poor solubility | solubility (in words) ([4]; in MeOH, DMF, DMA, NMP, CHCl3, AcOH and EtOH): Good solubility | solubility (in words) ([4]; in polar solvents including MeCN, EtOH, THF, DMF, AcOH, MeOH, NMP, and DMAc): appreciable solubility | solubility ([4]; Acetone, 1.8 mg, 5.75 mL, heating to 55° C.): < 0.33 mg/mL | solubility ([4]; Dioxane, 1.7 mg, 5.75 mL, heating to 55° C.): < 0.33 mg/mL | solubility ([4]; IPA, 1.2 mg, 5.75 mL, heating to 55° C.): < 0.33 mg/mL | solubility ([4]; MEK, 1.9 mg, 5.75 mL, heating to 55° C.): < 0.33 mg/mL | XRPD Results Day 1* ([5]; Form A slurried in Acetone, Ambient): amorphous | XRPD Results Day 1* ([5]; Form A slurried in MEK, Ambient): amorphous | XRPD Results Day 1* ([5]; Form A slurried in THF, Ambient): amorphous | XRPD Results Day 1* [5, 6]: amorphous | XRPD Results Week 1* [5, 6]: amorphous | XRPD Results Day 1* [5, 7]: amorphous | XRPD Results Week 1* [5, 7]: amorphous | solubility ([2]; aqueous buffer, 20 mM phosphate buffer at pH 3.2): < 0.1 mg/mL | solubility ([2]; de-ionized water, water): < 0.1 mg/mL

CCS(=O)(=O)c1cccc(-c2cc(C(=O)NC3CCN(C)CC3)c(C)c3[nH]c4ncc(C)cc4c23)c1 [HPF6 salt of Compound I]
stability (based on the available characterization data) [1]: stable under ambient conditions
